Reference: patent US6537992B2, “Regulation of organic nitrate tolerance” (priority 2001, dated 2003)

How the values were obtained:
[1] = Forearm blood flow by strain gauge plethysmography at rest and in response to sublingual nitroglycerin; type: in vivo, human; conditions: sublingual GTN 0.6 mg, before continuous GTN therapy, both groups
Description: (§1) Normal volunteers (n=20) were randomized in a double bind, placebo-controlled fashion to either oral folate (5 mg per day) or placebo. After 1 week of this double-blind therapy, subjects returned to the laboratory. At that time, measures of standing systolic blood pressure and heart rate were recorded. Subsequently, measurements of forearm blood flow were made at rest and in response to sublingual nitroglycerin (0.6 mg). […] A Randomized Double-blind, Placebo-controlled Study, J Cardiovasc Pharm. 1999;34:645-659.
(§2) Subsequently all subjects all received transdermal GTN (0.6 mg/hr). Standing heart rate and blood pressure responses were repeated 3 hours after initial patch application. Subjects were discharged from the laboratory with instructions to take transdermal GTN continuously for the next 5 to 7 days, changing the patch each day at 0800 hours. After 5 to 7 days, subjects returned to the laboratory where measures of standing systolic blood pressure and heart rate as well as forearm blood flow were repeated.

[2] = Standing systolic blood pressure and heart rate in normal volunteers during transdermal GTN, with oral folate or placebo; type: in vivo, human; conditions: acute transdermal GTN 0.6 mg/hr, 3 hours after initial patch application, both placebo and folate groups
Description: as §1, §2

O=[N+]([O-])OCC(CO[N+](=O)[O-])O[N+](=O)[O-] [GTN, glyceryl trinitrate]
forearm blood flow after sublingual administration [1]: similar, significant increase
heart rate after acute administration [2]: significant increase
systolic blood pressure after acute administration [2]: significant fall
